Experimental data from patent US20250236608A1, “EGFR INHIBITORS” (Blueprint Medicines Corporation, priority 2022, published 2025).

What was measured:
EGFR L858R = EGFR L858R (Homo sapiens (Human), UniProt P00533, L858R); assay: Biochemical EGFR inhibition assay, EGFR L858R; conditions: Caliper mobility shift; 1.0 mM ATP or ATP Km; read-out: Enz EGFR_L858R IC50
EGFR (d746-750) = EGFR (d746-750) (Homo sapiens (Human), UniProt P00533, DEL746-750); assay: Biochemical EGFR inhibition assay, EGFR (d746-750); conditions: Caliper mobility shift; 1.0 mM ATP or ATP Km; read-out: Enz EGFR_Exon19-del746-750 IC50
[1] = target: pEGFR (Tyr1068) in PC-9 cells (Ex19Del) (Homo sapiens (Human), UniProt P00533, DEL746-750); assay: PC-9 pEGFR AlphaLISA assay; type: cell-based; conditions: 4 hours incubation, p-EGFR (Tyr1068) AlphaLISA, read-out: Ext pEGFR_PC-9 Ex19Del IC50
How it was run: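 PC-9 cells seeded overnight in phenol-free DMEM with 10% FBS, then treated 4 h at 37°C with a 10-point, 4-fold compound series. Lysates assayed for pEGFR Tyr1068 by AlphaLISA SureFire; IC50 from % inhibition vs log concentration.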

Sequence of EGFR L858R (P00533 25-1210 L858R): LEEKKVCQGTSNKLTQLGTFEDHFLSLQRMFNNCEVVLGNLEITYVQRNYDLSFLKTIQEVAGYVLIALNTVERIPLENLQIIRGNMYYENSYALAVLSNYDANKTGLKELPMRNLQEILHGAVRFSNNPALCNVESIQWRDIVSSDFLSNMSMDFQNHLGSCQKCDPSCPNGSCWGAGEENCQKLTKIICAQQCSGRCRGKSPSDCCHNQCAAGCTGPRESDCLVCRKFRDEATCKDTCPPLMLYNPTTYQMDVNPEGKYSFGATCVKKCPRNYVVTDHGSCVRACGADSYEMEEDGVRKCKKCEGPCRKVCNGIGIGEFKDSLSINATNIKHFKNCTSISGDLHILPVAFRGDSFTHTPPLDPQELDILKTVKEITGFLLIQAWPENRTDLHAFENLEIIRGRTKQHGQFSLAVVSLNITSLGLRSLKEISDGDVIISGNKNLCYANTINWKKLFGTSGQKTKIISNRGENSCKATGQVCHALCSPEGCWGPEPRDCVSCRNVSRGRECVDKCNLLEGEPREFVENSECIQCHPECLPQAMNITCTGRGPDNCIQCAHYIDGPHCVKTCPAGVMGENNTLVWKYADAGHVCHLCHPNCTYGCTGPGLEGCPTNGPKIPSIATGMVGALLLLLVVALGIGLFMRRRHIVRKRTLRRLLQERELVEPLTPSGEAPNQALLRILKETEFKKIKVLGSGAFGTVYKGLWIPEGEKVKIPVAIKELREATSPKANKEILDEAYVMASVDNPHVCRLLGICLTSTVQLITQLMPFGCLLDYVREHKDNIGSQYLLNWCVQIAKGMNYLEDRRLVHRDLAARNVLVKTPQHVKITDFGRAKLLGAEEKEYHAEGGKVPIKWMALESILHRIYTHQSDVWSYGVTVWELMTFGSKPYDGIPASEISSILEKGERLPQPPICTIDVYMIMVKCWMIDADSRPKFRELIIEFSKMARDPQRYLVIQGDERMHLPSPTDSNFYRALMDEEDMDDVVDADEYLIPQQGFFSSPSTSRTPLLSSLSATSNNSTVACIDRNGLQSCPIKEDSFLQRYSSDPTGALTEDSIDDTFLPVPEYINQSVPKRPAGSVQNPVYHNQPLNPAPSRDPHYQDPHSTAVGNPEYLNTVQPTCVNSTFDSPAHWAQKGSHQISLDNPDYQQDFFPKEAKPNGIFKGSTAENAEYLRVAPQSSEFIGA
Sequence of pEGFR (Tyr1068) in PC-9 cells (Ex19Del) (P00533 other isoform, or with tags, fused parts or gaps del 746-750): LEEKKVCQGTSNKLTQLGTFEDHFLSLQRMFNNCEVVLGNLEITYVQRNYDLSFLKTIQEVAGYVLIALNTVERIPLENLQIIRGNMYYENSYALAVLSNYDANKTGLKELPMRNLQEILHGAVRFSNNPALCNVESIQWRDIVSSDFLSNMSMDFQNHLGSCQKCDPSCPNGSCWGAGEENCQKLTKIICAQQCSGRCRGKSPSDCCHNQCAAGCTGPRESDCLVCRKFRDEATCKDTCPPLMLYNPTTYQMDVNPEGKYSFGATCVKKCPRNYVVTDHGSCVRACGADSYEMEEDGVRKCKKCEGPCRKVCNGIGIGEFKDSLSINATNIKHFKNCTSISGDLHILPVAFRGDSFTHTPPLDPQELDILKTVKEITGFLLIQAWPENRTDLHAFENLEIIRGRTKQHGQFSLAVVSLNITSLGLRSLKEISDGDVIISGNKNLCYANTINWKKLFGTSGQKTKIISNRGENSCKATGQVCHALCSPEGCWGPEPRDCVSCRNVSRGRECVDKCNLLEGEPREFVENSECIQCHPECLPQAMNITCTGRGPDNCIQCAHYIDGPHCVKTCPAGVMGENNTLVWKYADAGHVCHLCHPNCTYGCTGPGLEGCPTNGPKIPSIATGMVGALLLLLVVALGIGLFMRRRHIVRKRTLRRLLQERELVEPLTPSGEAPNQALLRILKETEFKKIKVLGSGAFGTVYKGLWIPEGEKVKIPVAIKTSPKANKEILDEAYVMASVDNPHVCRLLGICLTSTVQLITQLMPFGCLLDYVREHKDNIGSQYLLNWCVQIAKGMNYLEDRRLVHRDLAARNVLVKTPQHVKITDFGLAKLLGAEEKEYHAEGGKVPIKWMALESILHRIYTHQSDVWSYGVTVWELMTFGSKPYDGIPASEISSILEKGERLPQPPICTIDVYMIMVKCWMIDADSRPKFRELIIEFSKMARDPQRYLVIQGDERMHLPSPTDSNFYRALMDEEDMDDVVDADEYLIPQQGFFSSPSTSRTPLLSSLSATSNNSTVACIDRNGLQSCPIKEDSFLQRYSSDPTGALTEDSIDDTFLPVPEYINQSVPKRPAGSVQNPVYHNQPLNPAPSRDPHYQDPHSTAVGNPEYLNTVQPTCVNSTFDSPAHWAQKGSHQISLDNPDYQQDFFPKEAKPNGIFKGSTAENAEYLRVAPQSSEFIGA
Sequence of EGFR (d746-750) (P00533 other isoform, or with tags, fused parts or gaps del 1-694/del 746-750 limits assumed): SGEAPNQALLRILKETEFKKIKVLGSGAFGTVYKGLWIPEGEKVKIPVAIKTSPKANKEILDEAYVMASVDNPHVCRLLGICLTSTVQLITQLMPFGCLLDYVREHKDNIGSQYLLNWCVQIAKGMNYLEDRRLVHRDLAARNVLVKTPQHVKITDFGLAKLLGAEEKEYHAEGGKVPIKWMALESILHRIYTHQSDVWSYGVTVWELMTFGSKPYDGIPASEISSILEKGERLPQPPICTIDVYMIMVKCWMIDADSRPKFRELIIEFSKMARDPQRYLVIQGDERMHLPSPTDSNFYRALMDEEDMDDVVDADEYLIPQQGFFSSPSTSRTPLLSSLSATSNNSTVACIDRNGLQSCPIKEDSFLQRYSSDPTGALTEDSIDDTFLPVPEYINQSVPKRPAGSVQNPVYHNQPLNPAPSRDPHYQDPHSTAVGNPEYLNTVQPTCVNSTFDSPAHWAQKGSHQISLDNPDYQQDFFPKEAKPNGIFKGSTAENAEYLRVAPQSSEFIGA

For `CCC(=O)Nc1cc2c(-c3cn(C)nc3-c3ccccc3)ncnc2cc1-c1ncccn1` [Example 449, N-(4-(1-methyl-3-phenyl-1H-pyrazol-4-yl)-7-(pyrimidin-2-yl)quinazolin-6-yl)propionamide], the IC50 (EGFR L858R) was 1.3 nM, the IC50 (EGFR (d746-750)) was 0.9 nM and the IC50 [1] was 1.9 nM.

With `CCOc1cc2ncnc(-c3cn(C)nc3-c3ccccc3)c2cc1NC(=O)[C@@]12COC[C@@H]1C2` [Example 290, (1R,5R)—N-(7-ethoxy-4-(1-methyl-3-phenyl-1H-pyrazol-4-yl)quinazolin-6-yl)-3-oxabicyclo[3.1.0]hexane-1-carboxamide] the IC50 (EGFR L858R) was 1.3 nM, the IC50 (EGFR (d746-750)) was 0.9 nM and the IC50 [1] was 1.5 nM.

Work on `COc1cc2ncnc(-c3cn(C)nc3-c3ccc(Cl)cc3)c2nc1NC(=O)C12CC(N(C)C)(C1)C2` [Example 474, N-{4-[3-(4-chlorophenyl)-1-methyl-1H-pyrazol-4-yl]-7-methoxypyrido[3,2-d]pyrimidin-6-yl}-3-(dimethylamino) bicyclo[1.1.1]pentane-1-carboxamide] yielded an IC50 (EGFR L858R) of 5.6 nM, an IC50 (EGFR (d746-750)) of 2 nM and an IC50 [1] of 3.6 nM.

`COc1cc2ncnc(-c3cn(C4CC4)nc3-c3ccccc3)c2nc1NC(=O)C1(C(F)(F)F)CC1` [Example 367, N-(4-(1-cyclopropyl-3-phenyl-1H-pyrazol-4-yl)-7-methoxypyrido[3,2-d]pyrimidin-6-yl)-1-(trifluoromethyl)cyclopropane-1-carboxamide] was tested, and the IC50 (EGFR L858R) was 1.6 nM, the IC50 (EGFR (d746-750)) was 0.9 nM and the IC50 [1] was 0.5 nM.

With `CCOc1cc2ncnc(-c3cn(C)nc3-c3ccccc3)c2cc1OC1CCNCC1` [Example 8, 7-ethoxy-4-(1-methyl-3-phenyl-1H-pyrazol-4-yl)-6-(piperidin-4-yloxy)quinazoline] the IC50 (EGFR L858R) was 4.8 nM, the IC50 (EGFR (d746-750)) was 3.4 nM and the IC50 [1] was 4.5 nM.

Work on `CCC(=O)Nc1cc2c(-c3cnn(C4CCOCC4)c3-c3ccccc3)ncnc2cc1OC` [Example 498] yielded an IC50 (EGFR L858R) of 306 nM, an IC50 (EGFR (d746-750)) of 349 nM and an IC50 [1] of 589 nM.

`C[C@@H](O)c1cc2c(-c3cn(CC(F)F)nc3-c3ccccc3)ncnc2cc1-c1cnn(C)c1` (single isomer, unassigned) [Example 445, (R)-1-(4-(1-(2,2-difluoroethyl)-3-phenyl-1H-pyrazol-4-yl)-7-(1-methyl-1H-pyrazol-4-yl)quinazolin-6-yl)ethan-1-ol or (S)-1-(4-(1-(2,2-difluoroethyl)-3-phenyl-1H-pyrazol-4-yl)-7-(1-methyl-1H-pyrazol-4-yl)quinazolin-6-yl)ethan-1-ol] gave an IC50 (EGFR L858R) of 1.5 nM, an IC50 (EGFR (d746-750)) of 1 nM and an IC50 [1] of 2.7 nM.

`CCn1ncc(-c2ncnc3cc(-c4cnn(C)c4)ccc23)c1-c1ccccc1` [Example 495] showed an IC50 (EGFR L858R) of 1.2 nM, an IC50 (EGFR (d746-750)) of 2.3 nM and an IC50 [1] of 15.3 nM.

In the case of `CCn1cc(-c2ncnc3cc(OC)c(N4CCOCC4)cc23)c(-c2ccccc2)n1` [Example 169, 4-(4-(1-ethyl-3-phenyl-1H-pyrazol-4-yl)-7-methoxyquinazolin-6-yl)morpholine], the IC50 (EGFR L858R) is reported as 1.7 nM, the IC50 (EGFR (d746-750)) is reported as 0.9 nM and the IC50 [1] is reported as 1.9 nM.

`COc1cc2ncnc(-c3cn(C)nc3-c3ccccc3)c2cc1NC(=O)c1cnc(C)s1` [Example 206, N-(7-methoxy-4-(1-methyl-3-phenyl-1H-pyrazol-4-yl)quinazolin-6-yl)-2-methylthiazole-5-carboxamide] gave an IC50 (EGFR L858R) of 0.8 nM, an IC50 (EGFR (d746-750)) of 0.4 nM and an IC50 [1] of 0.5 nM.

`CCOc1cc2ncnc(-c3cn(C)nc3-c3ccccc3)c2cc1NC(=O)[C@@]12C[C@@H]1CN(C)C2` (single isomer, unassigned) [Example 256, (1S,5S)—N-(7-ethoxy-4-(1-methyl-3-phenyl-1H-pyrazol-4-yl)quinazolin-6-yl)-3-methyl-3-azabicyclo[3.1.0]hexane-1-carboxamide or (1R,5R)—N-(7-ethoxy-4-(1-methyl-3-phenyl-1H-pyrazol-4-yl)quinazolin-6-yl)-3-methyl-3-azabicyclo[3.1.0]hexane-1-carboxamide] was tested, and the IC50 (EGFR L858R) was 0.8 nM, the IC50 (EGFR (d746-750)) was 0.4 nM and the IC50 [1] was 2 nM.

Compound `CCc1ccc(-c2cc3c(-c4cn(C)nc4-c4ccccc4)ncnc3cc2OC)c2c[nH]nc12` [Example 472, 6-(7-ethyl-2H-indazol-4-yl)-7-methoxy-4-(1-methyl-3-phenyl-1H-pyrazol-4-yl)quinazoline] has an IC50 (EGFR L858R) of 7.6 nM, an IC50 (EGFR (d746-750)) of 1.9 nM and an IC50 [1] of 2.7 nM.

`COc1cc2ncnc(-c3cn(C)nc3-c3ccccc3)c2cc1NC(=O)c1cncnc1` [Example 193, N-(7-methoxy-4-(1-methyl-3-phenyl-1H-pyrazol-4-yl)quinazolin-6-yl)pyrimidine-5-carboxamide] showed an IC50 (EGFR L858R) of 1.5 nM, an IC50 (EGFR (d746-750)) of 0.7 nM and an IC50 [1] of 2.9 nM.

`CCn1cc(-c2ncnc3cc(OC)c(NC(=O)[C@@]45COC[C@@H]4C5)nc23)c(-c2ccccc2)n1` (single isomer, unassigned) [Example 389, (1R,5R)—N-(4-(1-ethyl-3-phenyl-1H-pyrazol-4-yl)-7-methoxypyrido[3,2-d]pyrimidin-6-yl)-3-oxabicyclo[3.1.0]hexane-1-carboxamide or (1S,5S)—N-(4-(1-ethyl-3-phenyl-1H-pyrazol-4-yl)-7-methoxypyrido[3,2-d]pyrimidin-6-yl)-3-oxabicyclo[3.1.0]hexane-1-carboxamide] gave an IC50 (EGFR L858R) of 6.4 nM, an IC50 (EGFR (d746-750)) of 0.7 nM and an IC50 [1] of 0.4 nM.

Work on `COc1cc2ncnc(-c3cn(CCO)nc3-c3ccccc3)c2nc1NC(=O)C12CC(C1)C2` [Example 414, N-(4-(1-(2-hydroxyethyl)-3-phenyl-1H-pyrazol-4-yl)-7-methoxypyrido[3,2-d]pyrimidin-6-yl)bicyclo[1.1.1]pentane-1-carboxamide] yielded an IC50 (EGFR L858R) of 2.1 nM, an IC50 (EGFR (d746-750)) of 1.3 nM and an IC50 [1] of 1.2 nM.

For `CN(C)CCOc1cc2ncnc(-c3cn(C)nc3-c3ccccc3)c2nc1NC(=O)C12COCC1C2` (stereo not drawn) [Example 435, N-(7-(2-(dimethylamino)ethoxy)-4-(1-methyl-3-phenyl-1H-pyrazol-4-yl)pyrido[3,2-d]pyrimidin-6-yl)-3-oxabicyclo[3.1.0]hexane-1-carboxamide], the IC50 (EGFR L858R) was 25.8 nM, the IC50 (EGFR (d746-750)) was 3.1 nM and the IC50 [1] was 9.7 nM.

`COc1cc2ncnc(-c3cn(C)nc3-c3ccc(F)cc3F)c2cc1N1CCOCC1` [Example 166, 4-(4-(3-(2,4-difluorophenyl)-1-methyl-1H-pyrazol-4-yl)-7-methoxyquinazolin-6-yl)morpholine] showed an IC50 (EGFR L858R) of 1.7 nM, an IC50 (EGFR (d746-750)) of 0.7 nM and an IC50 [1] of 3.2 nM.

For `COc1cc2ncnc(-c3cn(C)nc3-c3ccccc3)c2cc1OC(=O)N1CCO[C@@H](C)[C@@H]1C` [Example 72, 7-methoxy-4-(1-methyl-3-phenyl-1H-pyrazol-4-yl)quinazolin-6-yl (2S,3S)-2,3-dimethylmorpholine-4-carboxylate], the IC50 (EGFR L858R) was 3.8 nM, the IC50 (EGFR (d746-750)) was 1.7 nM and the IC50 [1] was 5.1 nM.

`COc1cc2ncnc(-c3cn(C)nc3-c3ccccc3F)c2cc1OC(=O)N1CCN(C)C[C@@H]1C` [Example 66, 4-(3-(2-fluorophenyl)-1-methyl-1H-pyrazol-4-yl)-7-methoxyquinazolin-6-yl (S)-2,4-dimethylpiperazine-1-carboxylate] was tested, and the IC50 (EGFR L858R) was 2.9 nM, the IC50 (EGFR (d746-750)) was 2.2 nM and the IC50 [1] was 5.2 nM.

Work on `COc1cc2ncnc(-c3cn(C)nc3-c3ccccc3)c2nc1NC(=O)C1(C)CCCO1` (stereo not drawn) [Example 316, N-(7-methoxy-4-(1-methyl-3-phenyl-1H-pyrazol-4-yl)pyrido[3,2-d]pyrimidin-6-yl)-2-methyltetrahydrofuran-2-carboxamide] yielded an IC50 (EGFR L858R) of 3.5 nM, an IC50 (EGFR (d746-750)) of 0.8 nM and an IC50 [1] of 3.1 nM.

`COc1cc2ncnc(-c3cn(C)nc3-c3ccc(F)cc3)c2nc1NC(=O)[C@@]12C[C@@H]1CN(C)C2` (single isomer, unassigned) [Example 410, (1S,5S)—N-(4-(3-(4-fluorophenyl)-1-methyl-1H-pyrazol-4-yl)-7-methoxypyrido[3,2-d]pyrimidin-6-yl)-3-methyl-3-azabicyclo[3.1.0]hexane-1-carboxamide or (1R,5R)—N-(4-(3-(4-fluorophenyl)-1-methyl-1H-pyrazol-4-yl)-7-methoxypyrido[3,2-d]pyrimidin-6-yl)-3-methyl-3-azabicyclo[3.1.0]hexane-1-carboxamide] gave an IC50 (EGFR L858R) of 2.9 nM, an IC50 (EGFR (d746-750)) of 1.1 nM and an IC50 [1] of 2.5 nM.

Compound `CCC(=O)Nc1cc2c(-c3cnn(C4COC4)c3-c3ccccc3)ncnc2cc1OC` [Example 499] has an IC50 (EGFR L858R) of 17 nM, an IC50 (EGFR (d746-750)) of 33 nM and an IC50 [1] of 495 nM.

In the case of `Cn1cc(-c2ccc3c(-c4c[nH]nc4-c4cc(F)ccc4F)ncnc3c2)cn1` [Example 444, 4-(3-(2,5-difluorophenyl)-1H-pyrazol-4-yl)-7-(1-methyl-1H-pyrazol-4-yl)quinazoline], the IC50 (EGFR L858R) is reported as 0.5 nM, the IC50 (EGFR (d746-750)) is reported as 0.4 nM and the IC50 [1] is reported as 0.5 nM.

`COc1cc2ncnc(-c3cn(C)nc3-c3ccccc3)c2cc1-c1cnc(C(C)(C)O)s1` [Example 149, 2-(5-(7-methoxy-4-(1-methyl-3-phenyl-1H-pyrazol-4-yl)quinazolin-6-yl)thiazol-2-yl) propan-2-ol] was tested, and the IC50 (EGFR L858R) was 4.9 nM, the IC50 (EGFR (d746-750)) was 2.1 nM and the IC50 [1] was 12.8 nM.

Work on `COc1cc2ncnc(-c3cn(C)nc3-c3ccccc3)c2nc1NC(=O)[C@H](C)N(C)C` [Example 390, (S)-2-(dimethylamino)-N-(7-methoxy-4-(1-methyl-3-phenyl-1H-pyrazol-4-yl)pyrido[3,2-d]pyrimidin-6-yl) propenamide] yielded an IC50 (EGFR L858R) of 9.3 nM, an IC50 (EGFR (d746-750)) of 3.9 nM and an IC50 [1] of 8.7 nM.
